Like-named read-outs stand apart in the source and are kept apart here. Marks after values point to notes of the source that are not given here.
Columns and labels:
[1] = test system: isolated rat liver mitochondria; settings: positive control alamethicin treated samples
[2] = cited from earlier work
RCC I = RCC I activity in submitochondrial particles; type: biochemical, rat; design: key to RCC I at 10XCmax / RCC I at 100XCmax / RCC I at 50XCmax / RCC I at 30XCmax / RCC I at 20XCmax: activity relative to DMSO-treated controls (control set as 1 = 100%); settings: 10XCmax; DMSO treated samples set as 1
Outline: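 Kinase inhibitors were preincubated 15 min with submitochondrial particles (1 mg/ml) before complex activities were measured. RCC I was the rotenone-sensitive portion (activity without minus with rotenone). RCC I/V was read at 340 nm and RCC II at 600 nm every 1 min for 6 min. RCC III and IV were read at 550 nm every 10 s for 2 min. Activities are normalized to DMSO controls set as 1.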

[3] = test system: isolated rat liver mitochondria; assay: Mitochondrial inner membrane potential (MMP), Rhodamine 123; type: biochemical
From the text: Fig. 3 KI effects on mitochondrial inner membrane potential (MMP). […] In a, c, data are means and standard derivations from three separate experiments. *p < 0.05 as compared to DMSO-treated samples at the end of experiments. In b, data are means of two independent experiments

RCC IV = RCC IV activity in submitochondrial particles; type: biochemical, rat; design: key to RCC IV at 50XCmax / RCC IV at 100XCmax: activity relative to DMSO-treated controls (control set as 1 = 100%); settings: 50XCmax; DMSO treated samples set as 1; in %
Outline: (§1)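 Absorbance kinetics: A340 (RCC I, V) and A600 (RCC II) read each minute over 6 min, A550 (RCC III, IV) every 10 s over 2 min; RCC I taken as […]. Particles (1 mg/ml) pretreated 15 min with compound; DMSO-treated activity = 1.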

[4] = test system: isolated rat liver mitochondria; assay: Mitochondrial oxygen consumption (glutamate/malate or succinate driven, state 4 and state 3); type: biochemical; settings: for Glutamate/malate driven respiration State 3 / Glutamate/malate driven respiration State 4 / Succinate-driven respiration State 3 / Succinate-driven respiration State 4: oxygen consumption, DMSO-treated = 1; on State 3 respiration driven by succinate at 10XCmax: key: 0 indicates that the drug had no effects (negative); on State 3 respiration driven by succinate at 1XCmax: key: 0 indicates that the drug had no effects (negative)
Outline: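 Oxygen uptake on glutamate/malate or on succinate defined state 4; ADP added 3 min later gave state 3. Mitochondria isolated from rat liver by differential centrifugation, adjusted to 1 mg/ml and pretreated 5 min with inhibitor (0.1% DMSO final). Values relative to DMSO control, set to 1.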

RCC II = target: T1, RCC II (Rattus norvegicus, UniProt P21913+Q641Z9+Q6PCT8+Q920L2); assay: RCC II activity in submitochondrial particles; type: biochemical; design: key: activity relative to DMSO-treated controls (control set as 1 = 100%); settings: DMSO treated samples set as 1
T1 construct: Submitochondrial particles were prepared by subjecting the intact mitochondria to three successive freeze–thaw cycles; from tissue; host or cells: rat liver mitochondria, used as submitochondrial particles
Outline: as §1

[5] = test system: isolated rat liver mitochondria; assay: Mitochondrial ROS production (CM-H2DCFDA)
RCC III = RCC III activity in submitochondrial particles; type: biochemical, rat; design: key to RCC III at 100XCmax: activity relative to DMSO-treated controls (control set as 1 = 100%); settings: 100XCmax
Outline: as §1

[6] = 1XCmax, DMSO treated samples set as 1
[7] = 2.5XCmax, DMSO treated samples set as 1
[8] = 5XCmax, DMSO treated samples set as 1
[9] = 10XCmax, DMSO treated samples set as 1
[10] = 20XCmax, DMSO treated samples set as 1
[11] = 30XCmax, DMSO treated samples set as 1
[12] = 50XCmax, DMSO treated samples set as 1
[13] = 100XCmax, DMSO treated samples set as 1

T1 sequence (Q920L2 35-656): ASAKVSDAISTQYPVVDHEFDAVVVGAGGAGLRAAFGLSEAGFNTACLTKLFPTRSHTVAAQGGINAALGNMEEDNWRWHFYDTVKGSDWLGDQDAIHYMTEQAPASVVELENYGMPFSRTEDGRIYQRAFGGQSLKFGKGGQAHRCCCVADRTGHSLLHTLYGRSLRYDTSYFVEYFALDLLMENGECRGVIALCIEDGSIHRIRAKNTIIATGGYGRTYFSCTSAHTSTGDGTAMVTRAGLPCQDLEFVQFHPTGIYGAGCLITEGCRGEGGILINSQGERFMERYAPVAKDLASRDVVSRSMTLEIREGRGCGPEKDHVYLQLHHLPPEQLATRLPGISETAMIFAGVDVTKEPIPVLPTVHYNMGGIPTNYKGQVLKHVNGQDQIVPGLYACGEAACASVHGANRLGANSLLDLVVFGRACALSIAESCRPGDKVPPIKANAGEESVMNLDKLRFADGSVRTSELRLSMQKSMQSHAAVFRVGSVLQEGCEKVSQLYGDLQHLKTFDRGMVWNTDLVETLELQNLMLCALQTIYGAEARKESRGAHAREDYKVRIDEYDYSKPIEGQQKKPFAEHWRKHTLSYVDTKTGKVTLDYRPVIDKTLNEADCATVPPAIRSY
T1 sequence (P21913 31-282): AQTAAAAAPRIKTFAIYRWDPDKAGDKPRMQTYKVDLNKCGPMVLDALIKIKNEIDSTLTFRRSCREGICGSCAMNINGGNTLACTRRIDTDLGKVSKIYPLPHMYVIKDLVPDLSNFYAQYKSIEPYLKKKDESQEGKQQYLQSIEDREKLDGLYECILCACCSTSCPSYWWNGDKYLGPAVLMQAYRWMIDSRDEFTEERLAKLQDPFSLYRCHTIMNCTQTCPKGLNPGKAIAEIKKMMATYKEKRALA
T1 sequence (Q641Z9 1-169): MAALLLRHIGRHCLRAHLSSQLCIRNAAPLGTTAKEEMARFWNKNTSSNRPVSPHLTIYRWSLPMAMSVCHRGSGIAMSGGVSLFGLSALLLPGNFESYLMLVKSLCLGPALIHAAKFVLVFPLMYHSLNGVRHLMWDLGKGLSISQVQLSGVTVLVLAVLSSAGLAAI
T1 sequence (Q6PCT8 57-159): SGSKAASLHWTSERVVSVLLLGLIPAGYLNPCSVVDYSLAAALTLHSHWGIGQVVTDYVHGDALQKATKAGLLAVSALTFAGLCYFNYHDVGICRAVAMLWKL

Structure (SMILES): CC(C)(C)c1nc(-c2cccc(NS(=O)(=O)c3c(F)cccc3F)c2F)c(-c2ccnc(N)n2)s1 [Dabrafenib]
- Cytochrome c release 1XCmax ([1]; 1XCmax): 0
- Cytochrome c release 2.5XCmax ([1]; 2.5XCmax): 0
- Cytochrome c release 5XCmax ([1]; 5XCmax): 19.44±2.10 percentage of the positive control group
- Cytochrome c release 10XCmax ([1]; 10XCmax): 15.99±0.85 percentage of the positive control group
- Cytochrome c release 20XCmax ([1]; 20XCmax): 17.52±7.37 percentage of the positive control group
- Cytochrome c release 30XCmax ([1]; 30XCmax): 17.54±2.16 percentage of the positive control group
- Cytochrome c release 50XCmax ([1]; 50XCmax): 21.81±7.02 percentage of the positive control group
- Cytochrome c release 100XCmax ([1]; 100XCmax): 15.21±0.35 percentage of the positive control group
- Cmax ([2]; human therapeutic Cmax at FDA recommended dosages, ref product labeling and drug approval packages at the official FDA website): 2.84 µM
- Cmax (ng or µg/ml) ([2]; human therapeutic maximal blood concentration, ref product labeling): 1,478 ng/ml
- Cmax ([2]; read-out: Cmax at µM, human therapeutic maximal blood concentration, ref product labeling): 2.84 µM
- RCC I at 10XCmax (RCC I): 0
- lowest concentration decreasing MMP [3]: 20 fold Cmax
- MMP measured by Rhodamine 123 at 1XCmax ([3]; 1XCmax, difference in signal between KI and DMSO treated samples at the end of experiments): 0
- MMP measured by Rhodamine 123 at 2.5XCmax ([3]; 2.5XCmax, difference in signal between KI and DMSO treated samples at the end of experiments): 0
- MMP measured by Rhodamine 123 at 5XCmax ([3]; 5XCmax, difference in signal between KI and DMSO treated samples at the end of experiments): 0
- MMP measured by Rhodamine 123 at 10XCmax ([3]; 10XCmax, difference in signal between KI and DMSO treated samples at the end of experiments): 0
- MMP measured by Rhodamine 123 at 20XCmax ([3]; 20XCmax, difference in signal between KI and DMSO treated samples at the end of experiments): 660±95*
- MMP measured by Rhodamine 123 at 30XCmax ([3]; 30XCmax, difference in signal between KI and DMSO treated samples at the end of experiments): 773±60*
- MMP measured by Rhodamine 123 at 50XCmax ([3]; 50XCmax, difference in signal between KI and DMSO treated samples at the end of experiments): 953±54*
- MMP measured by Rhodamine 123 at 100XCmax ([3]; 100XCmax, difference in signal between KI and DMSO treated samples at the end of experiments): 926±89*
- effect on MMP ([3]; up to 100-fold Cmax or highest testable concentration): decrease in MMP
- RCC IV at 50XCmax (RCC IV): 0
- State 3 respiration driven by glutamate/malate at 1XCmax [4, 6]: 0
- State 3 respiration driven by succinate at 1XCmax [4, 6]: 0
- State 4 respiration driven by glutamate/malate at 1XCmax [4, 6]: 0
- State 4 respiration driven by succinate at 1XCmax [4, 6]: 0
- State 3 respiration driven by glutamate/malate at 2.5XCmax [4, 7]: 0
- State 3 respiration driven by succinate at 2.5XCmax [4, 7]: 0
- State 4 respiration driven by glutamate/malate at 2.5XCmax [4, 7]: 0
- State 4 respiration driven by succinate at 2.5XCmax [4, 7]: 0
- State 3 respiration driven by glutamate/malate at 5XCmax [4, 8]: 0
- State 3 respiration driven by succinate at 5XCmax [4, 8]: 0
- State 4 respiration driven by glutamate/malate at 5XCmax [4, 8]: 0
- State 4 respiration driven by succinate at 5XCmax [4, 8]: 0
- Glutamate/malate driven respiration State 3 ([4]; 10-fold Cmax): 0.94 ± 0.04
- Glutamate/malate driven respiration State 4 ([4]; 10-fold Cmax): 1.35 ± 0.19
- Succinate-driven respiration State 3 ([4]; 10-fold Cmax): 0.97 ± 0.07
- Succinate-driven respiration State 4 ([4]; 10-fold Cmax): 1.38 ± 0.13
- State 3 respiration driven by glutamate/malate at 10XCmax [4, 9]: 0
- State 3 respiration driven by succinate at 10XCmax [4, 9]: 0
- State 4 respiration driven by glutamate/malate at 10XCmax [4, 9]: 1.35±0.19
- State 4 respiration driven by succinate at 10XCmax [4, 9]: 1.38±0.13
- Glutamate/malate driven respiration State 3 ([4]; 20-fold Cmax): 0.90 ± 0.05
- Glutamate/malate driven respiration State 4 ([4]; 20-fold Cmax): 1.59 ± 0.05
- Succinate-driven respiration State 3 ([4]; 20-fold Cmax): 0.65 ± 0.01
- Succinate-driven respiration State 4 ([4]; 20-fold Cmax): 1.31 ± 0.02
- State 3 respiration driven by glutamate/malate at 20XCmax [4, 10]: 0
- State 3 respiration driven by succinate at 20XCmax [4, 10]: 0.65±0.01
- State 4 respiration driven by glutamate/malate at 20XCmax [4, 10]: 1.59±0.05
- State 4 respiration driven by succinate at 20XCmax [4, 10]: 1.31±0.02
- Glutamate/malate driven respiration State 3 ([4]; 30-fold Cmax): 0.71 ± 0.03
- Glutamate/malate driven respiration State 4 ([4]; 30-fold Cmax): 2.22 ± 0.24
- Succinate-driven respiration State 3 ([4]; 30-fold Cmax): 0.59 ± 0.07
- Succinate-driven respiration State 4 ([4]; 30-fold Cmax): 1.52 ± 0.12
- State 3 respiration driven by glutamate/malate at 30XCmax [4, 11]: 0.71±0.03
- State 3 respiration driven by succinate at 30XCmax [4, 11]: 0.59±0.07
- State 4 respiration driven by glutamate/malate at 30XCmax [4, 11]: 2.22±0.24
- State 4 respiration driven by succinate at 30XCmax [4, 11]: 1.52±0.12
- Glutamate/malate driven respiration State 3 ([4]; 50-fold Cmax): 0.56 ± 0.05
- Glutamate/malate driven respiration State 4 ([4]; 50-fold Cmax): 2.42 ± 0.21
- Succinate-driven respiration State 3 ([4]; 50-fold Cmax): 0.44 ± 0.10
- Succinate-driven respiration State 4 ([4]; 50-fold Cmax): 1.69 ± 0.30
- State 3 respiration driven by glutamate/malate at 50XCmax [4, 12]: 0.56±0.05
- State 3 respiration driven by succinate at 50XCmax [4, 12]: 0.44±0.10
- State 4 respiration driven by glutamate/malate at 50XCmax [4, 12]: 2.42±0.21
- State 4 respiration driven by succinate at 50XCmax [4, 12]: 1.69±0.30
- Glutamate/malate driven respiration State 3 ([4]; 100-fold Cmax): 0.41 ± 0.05
- Glutamate/malate driven respiration State 4 ([4]; 100-fold Cmax): 2.49 ± 0.32
- Succinate-driven respiration State 3 ([4]; 100-fold Cmax): 0.28 ± 0.01
- Succinate-driven respiration State 4 ([4]; 100-fold Cmax): 1.03 ± 0.09
- State 3 respiration driven by glutamate/malate at 100XCmax [4, 13]: 0.41±0.05
- State 3 respiration driven by succinate at 100XCmax [4, 13]: 0.28±0.01
- State 4 respiration driven by glutamate/malate at 100XCmax [4, 13]: 2.49±0.32
- State 4 respiration driven by succinate at 100XCmax [4, 13]: 0
- effect on state 4 respiration ([4]; highest tested concentrations): significant increases
- lowest concentration significantly affecting mitochondrial oxygen consumption ([4]; tested at 1 to 100-fold Cmax): tenfold
- RCC II at 1.0XCmax (RCC II; 1.0XCmax): 0
- RCC II at 2.5XCmax (RCC II; 2.5XCmax): 0
- RCC II at 5XCmax (RCC II; 5XCmax): 0
- RCC II at 10XCmax (RCC II; 10XCmax): 0
- RCC II at 20XCmax (RCC II; 20XCmax): 0
- RCC II at 30XCmax (RCC II; 30XCmax): 0
- RCC II at 50XCmax (RCC II; 50XCmax): 0
- RCC II at 100XCmax (RCC II; 100XCmax): 0
- lowest concentration triggering ROS overproduction [5]: 50 fold Cmax
- ROS measured by CM-H2DCFDA at 1XCmax [5, 6]: 0
- ROS measured by CM-H2DCFDA at 2.5XCmax [5, 7]: 0
- ROS measured by CM-H2DCFDA at 5XCmax [5, 8]: 0
- ROS measured by CM-H2DCFDA at 10XCmax [5, 9]: 0
- ROS measured by CM-H2DCFDA at 20XCmax [5, 10]: 0
- ROS measured by CM-H2DCFDA at 30XCmax [5, 11]: 0
- ROS measured by CM-H2DCFDA at 50XCmax [5, 12]: 2.23±0.44
- ROS measured by CM-H2DCFDA at 100XCmax [5, 13]: 1.80±0.16
- effect on ROS production ([5]; highest tested concentrations): significantly ROS production
- RCC III at 100XCmax (RCC III): 0

From paper PMC5515969, “Effects of 31 FDA approved small-molecule kinase inhibitors on isolated rat liver mitochondria” (Archives of Toxicology, 2016)
